Measurements: US20250264460A1, “METHOD OF MEASURING LEVEL OF IMMUNE SUPPRESSION” (THE JOHNS HOPKINS UNIVERSITY, priority 2022, published 2025)
Entries after “also recorded” stand apart in the source; their conditions may differ. Where two headings read alike, the source gives them in different places.

Experiments:
SARS-COV-2 spike = assay type: in vivo, human; conditions: SOTRs on immunosuppression, two weeks post dose three
PBMCs [1] = assay: Oil red O staining of lipid droplets in PBMCs from SOTRs, ex vivo; parameters: species or system human; conditions: PBMCs from SOTRs on high dose MMF
Protocol: (§1) FIGS. 4A-4J show high dose MMF inhibits mitochondrial fatty acid oxidation. FIGS. 4A-4B show normalized mean fluorescent intensity (MFI) of CD11c and CPT1a on total class-switched B cells segregated by dose of MMF; high (>1000), low (<1000), or none. […] FIGS. 4D-4E show oxygen consumption rate (OCR) following mitochondrial stress test of PBMCs plated directly post thaw from SOTRs or HCs (FIG. 4D) or healthy PBMCs treated in vitro with high or low dose MPA 48 hours prior to plating (FIG. 4E).
Due to the association with MMF dose and CPT1a expression, PBMCs from SOTRs receiving high dose, low dose, or no MMF were evaluated ex vivo for alterations in lipid metabolism. Immunosuppression dose is largely determined by estimation of graft function and the measurement of the blood levels of immunosuppressive drugs, although neither method is sensitive or specific for determining the current immunosuppressive status, particularly for MMF, where drug levels are not routinely measured. […] Mitochondrial bioenergetics were next measured directly ex vivo via the Agilent Seahorse XF Cell Mito Stress Test at basal levels and in response to mitochondrial stress, in the absence of additional stimulation or exogenous substrates. The oxygen consumption rate (OCR) was used as a measurement of mitochondrial respiration/oxidative phosphorylation (OXPHOS). […]

class-switched B cells = assay: Flow cytometry of CD11c and CPT1a on class-switched B cells of SOTRs by MMF dose; assay type: in vivo, human; conditions: SOTRs on high dose MMF or MPA (>1000 mg/per day or >721 mg/day)
Protocol: as §1

PBMCs [2] = assay: Seahorse XF Cell Mito Stress Test (OCR) of PBMCs from SOTRs, ex vivo; assay type: in vivo, human
Protocol: as §1
Due to the association with MMF dose and CPT1a expression, PBMCs from SOTRs receiving high dose, low dose, or no MMF were evaluated ex vivo for alterations in lipid metabolism. Immunosuppression dose is largely determined by estimation of graft function and the measurement of the blood levels of immunosuppressive drugs, although neither method is sensitive or specific for determining the current immunosuppressive status, particularly for MMF, where drug levels are not routinely measured. […] Mitochondrial bioenergetics were next measured directly ex vivo via the Agilent Seahorse XF Cell Mito Stress Test at basal levels and in response to mitochondrial stress, in the absence of additional stimulation or exogenous substrates. The oxygen consumption rate (OCR) was used as a measurement of mitochondrial respiration/oxidative phosphorylation (OXPHOS).

healthy PBMCs [3] = assay: Oil red O staining of healthy PBMCs treated in vitro with MPA; assay type: cell-based, human; conditions: high dose MPA (5 μM)
Protocol: Genes associated lipid synthesis were increased in total B cells from SOTRs (R or NR) in SCR.NA seq (FIG. 14A). PCA plot of lipidomics performed on total B cells derived from SOTRs or HCs (FIG. 14B). […] Accumulation of lipid droplets were measured by Oil Red O in PBMCs from HC or SOTR (FIG. 14D).

T cells and B cells = assay: Cell Trace Violet proliferation of stimulated T cells and B cells in the presence of MPA; assay type: cell-based, human; conditions: 6 days
healthy PBMCs [4] = assay: Seahorse OCR of healthy PBMCs treated in vitro with MPA; assay type: cell-based, human; conditions: for OCR: 48 hours prior to plating; for Effect on OCR increase of low dose MPA-treated cells: etomoxir (2 μM) 1 hour prior to measurement
Protocol: as §1
FIGS. 8A-81 show high dose MPA induces mitochondrial unresponsiveness. […] FIGS. 8D-8G show healthy PBMCs were treated with 5 μM MPA for 24 hours in complete media then rested overnight in low-nutrient media prior to analysis. Oxygen consumption rate (OCR) of exposed to long chain fatty acid palmitate (165 μM) (FIG. 8D), medium chain fatty acid octanoic acid (200 μM) (FIG. 8E), glucose (10 mM) and pyruvate (1 mM) (FIG. 8F), or glutamine (2 mM) (FIG. 8G) 20 minutes prior to analysis. FIGS. 8H-81 show fold change in baseline (FIG. 8H) or maximal (FIG. 81) OCR when healthy PBMCs were supplied with indicated substrates.
To test this hypothesis, cells were exposed to low dose etomoxir, an inhibitor of CPT1a transport of FAs into mitochondria. […] To confirm that high dose MPA inhibits FAO, palmitate (a long chain FA) was added exogenously to cultures 20 minutes prior to evaluation of mitochondrial respiration.

PBMCs [5] = assay: Viability of PBMCs after MPA treatment; assay type: cell-based, human; conditions: PBMCs 48 hours after 5 μM MPA, versus untreated
B cells and T cells = assay: OCR of B cells and T cells treated with MPA and etomoxir; assay type: cell-based, human
Source text: FIGS. 16A-16C show low dose MPA induces CPT1a-dependent FAO in B cells but not T cells.

[6] = etomoxir (CPT1a inhibition), MPA-treated

COc1c(C)c2c(c(O)c1C/C=C(\C)CCC(=O)OCCN1CCOCC1)C(=O)OC2 [MMF, mycophenolate mofetil]
Association of treatment with anti-S IgG response to third vaccine dose (SARS-COV-2 spike): specifically associated with a lack of response
Association of treatment with anti-S IgG response to third vaccine dose (SARS-COV-2 spike; listed as mycophenolate mofetil): all participants who failed to respond to a 3rd dose received
Intracellular lipid droplets (Oil Red O) (PBMCs [1]): higher levels of Oil Red O staining; also recorded: accumulation of intracellular lipid droplets
CD11c expression on class switched B cells (class-switched B cells): significantly lower
CPT1a expression on class switched B cells (class-switched B cells): significantly lower
Oxygen consumption rate (OCR) (PBMCs [2]; PBMCs from SOTRs on high dose MMF): reduced oxygen consumption rate; also recorded: reduced OCR compared to other SOTRs
Basal respiration (OCR) (PBMCs [2]; PBMCs from SOTRs on low dose MMF, no exogenous substrates): significantly higher basal respiration compared to HCs

COc1c(C)c2c(c(O)c1C/C=C(\C)CCC(=O)O)C(=O)OC2 [MPA, mycophenolic acid]
Accumulation of lipids (Oil Red O) (healthy PBMCs [3]): increased accumulation of lipids
Accumulation of lipids (Oil Red O) (healthy PBMCs [3]; listed as mycophenolic acid): Accumulation of lipid droplets was seen
Lymphocyte proliferation (T cells and B cells; high dose MPA (5 μM)): completely inhibit proliferation
Lymphocyte proliferation (T cells and B cells; low dose MPA (0.05 μM)): limit proliferation
Response to mitochondrial stress tests (healthy PBMCs [4]; high dose MPA): comparable manner to untreated cells
Mitochondrial oxidation of supplemented substrates (medium-chain fatty acids, glucose, glutamine) (healthy PBMCs [4]; high dose MPA (5 μM)): inhibits mitochondrial oxidation of various substrates; also recorded: diminished mitochondrial oxidation of various supplemented substrates
OCR (healthy PBMCs [4]; high dose MPA (5 μM)): reduced OCR compared to low dose
Oxidation of exogenous palmitate (OCR) (healthy PBMCs [4]; high dose MPA, palmitate (165 μM) 20 minutes prior): not able to oxidize exogenous long-chain fatty acid palmitate; also recorded: unable to oxidize palmitate
OCR (healthy PBMCs [4]; low dose MPA): directly induced increased OCR; also recorded: increased OCR compared to untreated PBMCs
Cell viability (PBMCs [5]): equivalent cell viability
CD11c expression on class switched B cells (class-switched B cells): significantly lower
CPT1a expression on class switched B cells (class-switched B cells): significantly lower
OCR of B cells (B cells and T cells; high dose MPA): blunted the increased OCR in B cells
OCR of B cells versus T cells (B cells and T cells; low dose MPA): only B cells increased their OCR

CCOC(=O)[C@@]1(CCCCCCOc2ccc(Cl)cc2)CO1 [etomoxir]
Effect on OCR increase of low dose MPA-treated cells (healthy PBMCs [4]): completely reversed the increase in OCR
Effect on OCR increase of low dose MPA-treated cells (healthy PBMCs [4]; listed as Etomoxir): completely reversed the increase of OCR
OCR of B cells (B cells and T cells; [6]): reduced OCR to baseline levels in B cells
OCR of T cells (B cells and T cells; [6]): had no effect on T cells
